# In the supplement of paper PMC11208160:
# Assay: recombinant UMI read abundance after kanamycin selection (control-corrected) (log10(CPM+1)); higher = more efficient recombination; extreme values may be limits of the assay; sequences stand for … in AGTGCAGAGAAAATCGGCCAGTTTTCTCTGCCTGCAGTCCGCATGCCGTGGGACCCCTTGGGTTCTAACCTGTTGCCTAGATTTATGCAGCGGACTGCCTTTCTCCCAAAGTGATAAACCGG…AGGTTGGTTTCACT; site = the 11-nt donor
# Summary of the method: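 Each donor and donor-binding-loop pair was tracked by a 12-nt UMI on a plasmid carrying a promoterless kanamycin gene. With a second plasmid supplying a fixed target and T7-inducible IS621 bridge recombinase, the pool was plated in Escherichia coli on IPTG (0.07 mM) plus kanamycin or unselected. Sequencing of recombinant UMIs across the donor–target junction gave counts expressed as log10(CPM+1) after replicate averaging and control-derived scaling.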
row,Sequence,recombinant UMI read abundance (log10)
1,CACTTGGCATGGACCGGTTTTCCCGGTAATCCGTATTTGGC (site CACTTGGCTGC),1.64
2,CACTTGGCATGGACCGGTTTTCCCGGTAATCCGTATTTGGC (site CACTTGGCTTC),0.166
3,CACTTGGCATGGACCGGTTTTCCCGGTAATCCGTATTTGGG (site CACTTGGCTAC),0.0307
4,CACTTGGCATGGACCGGTTTTCCCGGTAATCCGTATTTGGG (site CACTTGGCTCC),0.0801
5,CACTTGGCATGGACCGGTTTTCCCGGTAATCCGTATTTGGG (site CACTTGGCTGC),0
6,CACTTGGCATGGACCGGTTTTCCCGGTAATCCGTATTTGGG (site CACTTGGCTTC),0.0398
7,CACTTGTCATGGACCGGTTTTCCCGGTAATCCGTATTTGGA (site CACTTGACTTC),0.0147
8,CACTTGTCATGGACCGGTTTTCCCGGTAATCCGTATTTGGA (site CACTTGCCTTC),0.0181
9,CACTTGTCATGGACCGGTTTTCCCGGTAATCCGTATTTGGA (site CACTTGGCTTC),0.00318
10,CACTTGTCATGGACCGGTTTTCCCGGTAATCCGTATTTGGA (site CACTTGTCTTC),1.84
11,CAGAAGTCATGGACCGGTTTTCCCGGTAATCCGTATTTGAC (site CAGAAGTCTGT),1.46
12,CAGAATACATGGACCGGTTTTCCCGGTAATCCGTATTTGCA (site AAGAATACTTG),0.616
13,CAGAATACATGGACCGGTTTTCCCGGTAATCCGTATTTGCA (site CAGAATACTTG),2.15
14,CAGAATACATGGACCGGTTTTCCCGGTAATCCGTATTTGCA (site GAGAATACTTG),0
15,CAGAATACATGGACCGGTTTTCCCGGTAATCCGTATTTGCA (site TAGAATACTTG),0.38
16,CAGAATCCATGGACCGGTTTTCCCGGTAATCCGTATTTGTC (site CAGAATCCTGA),2.5
17,CAGAATCCATGGACCGGTTTTCCCGGTAATCCGTATTTGTC (site CGGAATCCTAA),0
18,CAGACATCATGGACCGGTTTTCCCGGTAATCCGTATTTGAG (site CAGACATCTCT),3.06
19,CAGACCGCATGGACCGGTTTTCCCGGTAATCCGTATTTGTC (site CAGACCGCTGA),3.23
20,CAGATGGCATGGACCGGTTTTCCCGGTAATCCGTATTTGTA (site CAGATGGCTTA),2.68
21,CAGCACGCATGGACCGGTTTTCCCGGTAATCCGTATTTGGG (site AAGCACGCTCC),0.012
22,CAGCACGCATGGACCGGTTTTCCCGGTAATCCGTATTTGGG (site CAGCACGCTCC),0.512
23,CAGCACGCATGGACCGGTTTTCCCGGTAATCCGTATTTGGG (site GAGCACGCTCC),0.0111
24,CAGCACGCATGGACCGGTTTTCCCGGTAATCCGTATTTGGG (site TAGCACGCTCC),0.0838
25,CAGCAGCCATGGACCGGTTTTCCCGGTAATCCGTATTTGGT (site CAGCAGCCTAC),0.642

row,Sequence,recombinant UMI read abundance (log10)
1,CAGCATGCATGGACCGGTTTTCCCGGTAATCCGTATTTGAA (site CAGCATGCTTT),2.7
2,CAGCCAACATGGACCGGTTTTCCCGGTAATCCGTATTTGCA (site CAGCCAACTTG),2.34
3,CAGCGGTCATGGACCGGTTTTCCCGGTAATCCGTATTTGCC (site CAGCGGTCTGG),2.76
4,CAGCTCGCATGGACCGGTTTTCCCGGTAATCCGTATTTGTG (site CAGCTCGCTCA),0.0273
5,CAGCTGGCATGGACCGGTTTTCCCGGTAATCCGTATTTGAT (site CAGCTGGCTAT),1.63
6,CAGGCATCATGGACCGGTTTTCCCGGTAATCCGTATTTGCA (site CAGGCATCTTG),2.53
7,CAGGCCGCATGGACCGGTTTTCCCGGTAATCCGTATTTGAG (site CAGGCCGCTCT),0.33
8,CAGGGGTCATGGACCGGTTTTCCCGGTAATCCGTATTTGAA (site CAGGGGTCTTT),3.02
9,CAGGGTCCATGGACCGGTTTTCCCGGTAATCCGTATTTGGA (site CAGGGTCCTTC),0.288
10,CAGGTCACATGGACCGGTTTTCCCGGTAATCCGTATTTGGG (site CAAGTCACTCC),0.0193
11,CAGGTCACATGGACCGGTTTTCCCGGTAATCCGTATTTGGG (site CACGTCACTCC),0.00865
12,CAGGTCACATGGACCGGTTTTCCCGGTAATCCGTATTTGGG (site CAGGTCACTCC),0.0396
13,CAGGTCACATGGACCGGTTTTCCCGGTAATCCGTATTTGGG (site CATGTCACTCC),0.0163
14,CAGGTCACATGGACCGGTTTTCCCGGTAATCCGTATTTGTC (site CAGGTCACTGA),2.7
15,CAGGTGACATGGACCGGTTTTCCCGGTAATCCGTATTTGTA (site CAGGTGACTTA),1.83
16,CAGGTGGCATGGACCGGTTTTCCCGGTAATCCGTATTTGCG (site CAGGTGGCTCG),1.88
17,CAGTAGACATGGACCGGTTTTCCCGGTAATCCGTATTTGGG (site CAGTAGACTCC),0.653
18,CAGTAGACATGGACCGGTTTTCCCGGTAATCCGTATTTGGG (site CAGTCGACTCC),0.00641
19,CAGTAGACATGGACCGGTTTTCCCGGTAATCCGTATTTGGG (site CAGTGGACTCC),0.00992
20,CAGTAGACATGGACCGGTTTTCCCGGTAATCCGTATTTGGG (site CAGTTGACTCC),0.033
21,CAGTATCCATGGACCGGTTTTCCCGGTAATCCGTATTTGTT (site CAGTATCCTAA),1.87
22,CAGTATCCATGGACCGGTTTTCCCGGTAATCCGTATTTGTT (site CGGAATCCTAA),0.00316
23,CAGTCGACATGGACCGGTTTTCCCGGTAATCCGTATTTGGA (site CAGTCGACTAC),0.0073
24,CAGTCGACATGGACCGGTTTTCCCGGTAATCCGTATTTGGA (site CAGTCGACTCC),0.0138
25,CAGTCGACATGGACCGGTTTTCCCGGTAATCCGTATTTGGA (site CAGTCGACTGC),0.00544

row,Sequence,recombinant UMI read abundance (log10)
1,CAGTCGACATGGACCGGTTTTCCCGGTAATCCGTATTTGGA (site CAGTCGACTTC),0.0121
2,CAGTCGACATGGACCGGTTTTCCCGGTAATCCGTATTTGGG (site AAGTCGACTCC),0.0145
3,CAGTCGACATGGACCGGTTTTCCCGGTAATCCGTATTTGGG (site CAATCGACTCC),0.0099
4,CAGTCGACATGGACCGGTTTTCCCGGTAATCCGTATTTGGG (site CACTCGACTCC),0.0212
5,CAGTCGACATGGACCGGTTTTCCCGGTAATCCGTATTTGGG (site CAGACGACTCC),0.083
6,CAGTCGACATGGACCGGTTTTCCCGGTAATCCGTATTTGGG (site CAGCCGACTCC),0.00881
7,CAGTCGACATGGACCGGTTTTCCCGGTAATCCGTATTTGGG (site CAGGCGACTCC),0
8,CAGTCGACATGGACCGGTTTTCCCGGTAATCCGTATTTGGG (site CAGTAGACTCC),0.34
9,CAGTCGACATGGACCGGTTTTCCCGGTAATCCGTATTTGGG (site CAGTCAACTCC),0.0265
10,CAGTCGACATGGACCGGTTTTCCCGGTAATCCGTATTTGGG (site CAGTCCACTCC),0.0168
11,CAGTCGACATGGACCGGTTTTCCCGGTAATCCGTATTTGGG (site CAGTCGACTAC),0.0109
12,CAGTCGACATGGACCGGTTTTCCCGGTAATCCGTATTTGGG (site CAGTCGACTCA),0.00973
13,CAGTCGACATGGACCGGTTTTCCCGGTAATCCGTATTTGGG (site CAGTCGACTCC),0.297
14,CAGTCGACATGGACCGGTTTTCCCGGTAATCCGTATTTGGG (site CAGTCGACTCG),0
15,CAGTCGACATGGACCGGTTTTCCCGGTAATCCGTATTTGGG (site CAGTCGACTCT),0.314
16,CAGTCGACATGGACCGGTTTTCCCGGTAATCCGTATTTGGG (site CAGTCGACTGC),0
17,CAGTCGACATGGACCGGTTTTCCCGGTAATCCGTATTTGGG (site CAGTCGACTTC),0.00419
18,CAGTCGACATGGACCGGTTTTCCCGGTAATCCGTATTTGGG (site CAGTCGCCTCC),0.0239
19,CAGTCGACATGGACCGGTTTTCCCGGTAATCCGTATTTGGG (site CAGTCGGCTCC),0.0315
20,CAGTCGACATGGACCGGTTTTCCCGGTAATCCGTATTTGGG (site CAGTCGTCTCC),0.151
21,CAGTCGACATGGACCGGTTTTCCCGGTAATCCGTATTTGGG (site CAGTCTACTCC),0.0277
22,CAGTCGACATGGACCGGTTTTCCCGGTAATCCGTATTTGGG (site CAGTGGACTCC),0.0181
23,CAGTCGACATGGACCGGTTTTCCCGGTAATCCGTATTTGGG (site CAGTTGACTCC),0.0173
24,CAGTCGACATGGACCGGTTTTCCCGGTAATCCGTATTTGGG (site CATTCGACTCC),0.0119
25,CAGTCGACATGGACCGGTTTTCCCGGTAATCCGTATTTGGG (site CCGTCGACTCC),0.00307
